Test results reported in patent publication US8735391B2, “Synthesis of functionalized octahydro-isoquinolin-1-one-8-carboxamides, octahydro-isoquinolin-1-one-8-carboxylic esters and analogs, and therapeutic methods” (University of Kansas, priority 2008, dated 2014).
Where two headings read alike, the source gives them in different places.

Experiments:
KOR [1] = target: T1, KOR (Homo sapiens, UniProt P41145); assay: Opioid secondary binding, KOR (Tables 4, 5, 8, 9)
MOR = MOR (Homo sapiens, UniProt P35372); assay: Opioid secondary binding, MOR (Tables 4, 5, 8)
Sequence of MOR (P35372 whole entry): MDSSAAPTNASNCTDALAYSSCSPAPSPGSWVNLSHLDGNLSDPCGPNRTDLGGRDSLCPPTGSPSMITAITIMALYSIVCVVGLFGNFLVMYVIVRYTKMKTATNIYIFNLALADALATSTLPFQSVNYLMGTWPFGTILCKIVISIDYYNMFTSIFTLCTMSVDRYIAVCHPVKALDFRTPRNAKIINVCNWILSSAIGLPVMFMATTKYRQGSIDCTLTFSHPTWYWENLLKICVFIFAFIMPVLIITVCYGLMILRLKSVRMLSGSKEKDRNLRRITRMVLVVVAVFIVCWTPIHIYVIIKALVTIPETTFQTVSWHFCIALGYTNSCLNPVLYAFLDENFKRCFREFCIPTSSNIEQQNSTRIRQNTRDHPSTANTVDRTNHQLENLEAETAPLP

KOR [2] = target: T1, KOR; assay: [35S]GTPγS binding functional agonist assay on membranes of CHO cells expressing hKOR (reference agonist U69593); type: biochemical; parameters: expressed in transfected cells; host or cells: CHO cells, stably transfected; crude membrane fractions; details: for KOR agonist (average percent efficacy relative to cognate agonist): test compound at 10 micromolar, N=4, reference agonist = 100%, CHO-cell line expressing hKOR; for Emax: read-out: Emax values relative to U69593
Description: The compounds prepared herein were tested for bioactivity with opioid receptors. Agonist assays: Data represent the percent efficacy (relative to cognate agonist) of the test compound at 10 micromolar. The response to a saturating concentration of a reference antagonist or to vehicle (usually none or negligible) is set to 0%. […] The response inhibition elicited by a saturating concentration of reference antagonist is set to 100%; the response inhibition (usually none or negligible) elicited by vehicle is set to 0%. The following tables provide data related to the bioactivity for opioid receptors of the compounds described herein.
Table 6 provides data that represent the average percent efficacy (N=4; relative to cognate agonist) of the test compound at 10 micromolar concentration. The response to a saturating concentration of cognate/reference agonist is set to 100%; the response to a saturating concentration of a reference antagonist or to vehicle (usually none or negligible) is set to 0%. All functional assays are performed on stably transfected CHO-cell lines expressing hKOR, hMOR or hDOR.
(§1) Serial dilutions of the test and reference compounds are made in binding buffer at 2× assay concentration (final assay concentrations ranging from 0.1 nM to 10 μM). Crude membrane fractions (1.8 to 3.5 cm2/well) (prepared from 10-cm plates by harvesting PBS-rinsed monolayers, resuspending and lysing in chilled, hypotonic 50 mM Tris-HCl, pH 7.4, centrifuging at 20,000×g, decanting the supernatant and storing at −80 degrees centigrade; typically, one 10-cm plate provides sufficient material for 24 wells) are resuspended in 1.2 ml of assay buffer containing 20 μM GDP, wheat germ agglutinin (WGA)-coated scintillation proximity beads (2.4 mg), and [35S]GTPγS (300 pM final). The suspension is then added (50 μl/well) to 50 μl of the 2× test or reference compounds (each concentration assayed in triplicate) in flexible transparent PET 96-well plates. The reaction plate is sealed and incubated for 90 min at room temperature, then centrifuged for 5 min at 216×g, and finally loaded into a Wallac MicroBeta TriLux counter. Non-specific [35S]GTPγS binding is assessed at the maximum concentration of reference agonist in the presence of 10 μM antagonist. The background signal is measured at 10 μM reference agonist in the presence of 10 μM unlabeled GTPγS. Raw data (dpm) representing total [35S]GTPγS binding (i.e., specific+non-specific binding) are calculated as a percentage of the maximum response by the reference agonist (in this case U69593).
as §1, with “GTPγS.” for “GTPγS. Raw data (dpm) representing total [35S]GTPγS binding (i.e., specific+non-specific binding) are calculated as a percentage of the maximum response by the reference agonist (in this case U69593).”

DOR = DOR (Homo sapiens, UniProt P41143); assay: Opioid secondary binding, DOR (Table 4); details: Opioid secondary binding activity for Formula 10 analogs
Sequence of DOR (P41143 whole entry): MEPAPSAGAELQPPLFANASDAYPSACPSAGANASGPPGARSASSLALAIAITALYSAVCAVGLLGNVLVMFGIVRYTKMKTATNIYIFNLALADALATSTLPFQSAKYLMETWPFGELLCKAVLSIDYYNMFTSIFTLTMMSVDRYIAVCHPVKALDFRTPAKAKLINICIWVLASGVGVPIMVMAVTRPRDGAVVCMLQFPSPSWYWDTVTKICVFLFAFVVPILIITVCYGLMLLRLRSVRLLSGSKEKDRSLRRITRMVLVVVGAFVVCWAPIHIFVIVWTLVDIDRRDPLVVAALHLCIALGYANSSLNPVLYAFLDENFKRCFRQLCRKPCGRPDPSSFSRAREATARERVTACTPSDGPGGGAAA

[3] = Opioid secondary binding activity for Formula 10 analogs, read-out: KOR, Ki
[4] = Opioid secondary binding activity for Formula 10 analogs, read-out: MOR, Ki

T1 sequence (P41145 whole entry): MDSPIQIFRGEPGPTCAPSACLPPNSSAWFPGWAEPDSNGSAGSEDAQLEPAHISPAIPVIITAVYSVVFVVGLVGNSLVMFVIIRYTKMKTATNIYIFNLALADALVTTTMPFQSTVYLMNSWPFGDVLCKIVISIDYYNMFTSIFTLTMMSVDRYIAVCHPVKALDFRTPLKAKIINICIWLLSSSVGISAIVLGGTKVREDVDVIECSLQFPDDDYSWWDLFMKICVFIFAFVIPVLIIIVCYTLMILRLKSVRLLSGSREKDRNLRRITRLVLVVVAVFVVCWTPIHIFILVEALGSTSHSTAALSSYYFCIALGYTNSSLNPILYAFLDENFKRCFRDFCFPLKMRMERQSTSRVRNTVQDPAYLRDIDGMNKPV

| SMILES | Ki (KOR [1]; [3]) | Ki (MOR; [4]) | KOR agonist (average percent efficacy relative to cognate agonist) (KOR [2]) | Ki (DOR) | Emax values relative to U69593 (KOR [2]; [35S]GTPγS data-fit top relative to reference agonist U69593) | Emax (KOR [2]) | Ki (KOR [1]) | Ki (MOR) |
| --- | --- | --- | --- | --- | --- | --- | --- | --- |
| O=C1[C@H]2[C@H](C=CC[C@H]2C(=O)N2CCN(c3ccccc3)CC2)CCN1Cc1ccccc1 (racemic) [compound 8912] | 4800 nM | 2400 nM | 8% | 3850 nM |  |  |  |  |
| COc1ccc(CN2CC[C@H]3C=CC[C@@H](C(=O)N4CCN(c5ccccc5)CC4)[C@H]3C2=O)cc1OC (racemic) [compound 8915] | 8900 nM | 5540 nM | 6.7% | 4690 nM |  |  |  |  |
| O=C(Nc1ccccc1)[C@@H]1CC=C[C@@H]2CCN(Cc3ccccc3)C(=O)[C@@H]21 (racemic) [compound 8937, 2-Benzyl-N-phenyl-1-oxo-1,2,3,4,4a,7,8,8a-octahydroisoquinoline-8-carboxamide] | 146 nM | 2570 nM | 136.6% | 850 nM |  |  |  |  |
| O=C(Nc1ccccc1)[C@@H]1CC=C[C@@H]2CCN(Cc3ccc(Cl)c(Cl)c3)C(=O)[C@@H]21 (racemic) [compound 8941] | 259 nM | 2700 nM | 79% | 1110 nM |  |  |  |  |
| COc1ccc(CN2CC[C@H]3C=CC[C@@H](C(=O)Nc4ccccc4)[C@H]3C2=O)cc1OC (racemic) [compound 8942] | 3060 nM | 3520 nM | 5.4% | 4610 nM |  |  |  |  |
| CCCCN1CC[C@H]2C=CC[C@@H](C(=O)Nc3ccc(Cl)c(C(F)(F)F)c3)[C@H]2C1=O (racemic) [compound 8956] | 190 nM | 2220 nM | 118.7% |  |  |  |  |  |
| Cc1cc(NC(=O)[C@@H]2CC=C[C@@H]3CCN(Cc4ccccc4)C(=O)[C@@H]32)ccc1Cl (racemic) [compound 11872] | 86 nM | 2180 nM |  |  | 123% |  |  |  |
| O=C(Nc1ccc(Br)c(C(F)(F)F)c1)[C@H]1CC=C[C@H]2CCN(Cc3ccccc3)C(=O)[C@@H]12 [11869*] | 16.5 nM | 648 nM |  |  |  | 68% |  |  |
| O=C(Nc1ccc(Cl)c(C(F)(F)F)c1)[C@H]1CC=C[C@H]2CCN(Cc3ccccc3)C(=O)[C@@H]12 [compound 11790] |  |  |  |  |  | 78% | 3.2 nM | 208 nM |
